Experimental data from US8772498B2, “Alkylamine-substituted dicyanopyridine and amino acid ester prodrugs thereof” (Bayer Intellectual Property GmbH, priority 2009, dated 2014).

Columns and labels:
adenosine A1 receptor = biological target: T1, adenosine A1 receptor (Homo sapiens, UniProt P30542); test: Indirect determination of adenosine agonism by gene expression (luciferase), A1 cells; format: cell-based; conditions: CHO cells, luciferase readout, 1 μM forskolin
T1 construct: expressed in transfected cells; host or cells: CHO (Chinese Hamster Ovary)
T1 sequence (P30542 1-326): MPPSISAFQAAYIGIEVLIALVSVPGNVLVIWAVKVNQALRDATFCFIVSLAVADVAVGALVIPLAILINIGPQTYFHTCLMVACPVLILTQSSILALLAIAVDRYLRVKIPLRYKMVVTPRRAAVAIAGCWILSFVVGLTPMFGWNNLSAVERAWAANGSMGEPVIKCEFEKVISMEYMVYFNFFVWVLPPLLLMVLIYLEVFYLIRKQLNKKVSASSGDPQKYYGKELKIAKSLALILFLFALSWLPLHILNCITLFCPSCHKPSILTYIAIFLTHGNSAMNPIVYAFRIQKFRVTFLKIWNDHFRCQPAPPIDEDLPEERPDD
Excerpt: (§1) B-1. Indirect Determination of the Adenosine Agonism by Way of Gene Expression
(§2) Cells of the CHO (Chinese Hamster Ovary) permanent cell line are transfected stably with the cDNA for the adenosine receptor subtypes A1, A2a and A2b. The adenosine A1 receptors are coupled to the adenylate cyclase by way of G, proteins, while the adenosine A2a and A2b receptors are coupled by way of Gs proteins. In correspondence with this, the formation of cAMP in the cell is inhibited or stimulated, respectively. After that, expression of the luciferase is modulated by way of a cAMP-dependent promoter. The luciferase test is optimized, with the aim of high sensitivity and reproducibility, low variance and good suitability for implementation on a robot system, by varying several test parameters, such as cell density, duration of the growth phase and the test incubation, forskolin concentration and medium composition. The following test protocol is used for pharmacologically characterizing cells and for the robot-assisted substance screening:
(§3) The stock cultures are grown, at 37° C. and under 5% CO2, in DMEM/F12 medium containing 10% FCS (fetal calf serum) and in each case split 1:10 after 2-3 days. The test cultures are seeded in 384-well plates with 2000 cells per well and grown at 37° C. for approx. 48 hours. The medium is then replaced with a physiological sodium chloride solution (130 mM sodium chloride, 5 mM potassium chloride, 2 mM calcium chloride, 20 mM HEPES, 1 mM magnesium chloride hexahydrate, 5 mM sodium bicarbonate, pH 7.4). The substances to be tested, which are dissolved in DMSO, are pipetted into the test cultures (maximum final concentration of DMSO in the test mixture: 0.5%) in a dilution series of from 5×10^−11 M to 3×10^−6 M (final concentration). 10 minutes later, forskolin is added to the A1 cells and all the cultures are subsequently incubated at 37° C. for four hours. After that, 35 μl of a solution which is composed of 50% lysis reagent (30 mM disodium hydrogenphosphate, 10% glycerol, 3% TritonX100, 25 mM TrisHCl, 2 mM dithiotreitol (DTT), pH 7.8) and 50% luciferase substrate solution (2.5 mM ATP, 0.5 mM luciferin, 0.1 mM coenzyme A, 10 mM tricine, 1.35 mM magnesium sulfate, 15 mM DTT, pH 7.8) are added to the test cultures, which are shaken for approx. 1 minute and the luciferase activity is measured using a camera system. The ECK values are determined, i.e., the concentrations at which 50% of the luciferase answer is inhibited in the case of the A1 cell, and, respectively, 50% of the maximum stimulation with the corresponding substance is achieved in the case of the A2b and A2a cells.
(§4) Table 1 below lists the ECK values of representative working examples for the receptor stimulation on adenosine A1, A2a and A2b receptor subtypes: […]

adenosine A2a receptor = biological target: T2, adenosine A2a receptor (Homo sapiens, UniProt P29274); test: Indirect determination of adenosine agonism by gene expression (luciferase), A2a cells; format: cell-based; conditions: CHO cells, luciferase readout
T2 construct: expressed in transfected cells; host or cells: CHO (Chinese Hamster Ovary)
T2 sequence (P29274 whole entry): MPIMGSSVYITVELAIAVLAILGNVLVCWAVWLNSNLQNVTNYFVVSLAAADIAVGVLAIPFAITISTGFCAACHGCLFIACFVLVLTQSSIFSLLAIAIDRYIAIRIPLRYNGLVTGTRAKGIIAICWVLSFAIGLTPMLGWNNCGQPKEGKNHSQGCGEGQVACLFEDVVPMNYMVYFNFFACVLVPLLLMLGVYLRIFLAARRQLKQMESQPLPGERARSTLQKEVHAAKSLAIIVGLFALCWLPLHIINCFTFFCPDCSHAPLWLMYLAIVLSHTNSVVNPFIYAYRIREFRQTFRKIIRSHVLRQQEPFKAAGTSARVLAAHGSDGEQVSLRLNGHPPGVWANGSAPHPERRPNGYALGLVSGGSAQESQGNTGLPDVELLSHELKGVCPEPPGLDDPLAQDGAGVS
Excerpt: as §1, §2, §3, §4

adenosine A2b receptor = biological target: T3, adenosine A2b receptor (Homo sapiens, UniProt P29275); test: Indirect determination of adenosine agonism by gene expression (luciferase), A2b cells; format: cell-based; conditions: CHO cells, luciferase readout
T3 construct: expressed in transfected cells; host or cells: CHO (Chinese Hamster Ovary)
T3 sequence (P29275 1-332): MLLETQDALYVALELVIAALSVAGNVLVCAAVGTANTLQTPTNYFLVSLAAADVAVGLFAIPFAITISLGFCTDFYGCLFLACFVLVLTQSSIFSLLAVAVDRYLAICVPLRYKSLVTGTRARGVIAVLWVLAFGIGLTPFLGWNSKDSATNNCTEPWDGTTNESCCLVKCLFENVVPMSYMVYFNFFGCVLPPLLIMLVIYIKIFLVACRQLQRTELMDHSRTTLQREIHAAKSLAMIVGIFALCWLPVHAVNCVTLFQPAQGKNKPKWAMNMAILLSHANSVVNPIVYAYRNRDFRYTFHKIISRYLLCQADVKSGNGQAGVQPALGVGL
Excerpt: as §1, §2, §3, §4

[1] = Determination of the solubility in 5% strength aqueous dextrose solution; format: physicochemical; conditions: result in words
Description: B-8. Determination of Solubility, Stability and Liberation Behavior a) Determination of the Solubility:
The test substance is suspended in 5% strength aqueous dextrose solution. This suspension is shaken at room temperature for 24 h. After ultracentrifugation at 224 000 g for 30 min, the supernatant is diluted with DMSO and analyzed by HPLC. A two-point calibration plot of the test compound in DMSO is used for quantification.
Agilent 1100 with DAD (G1315A), quat. pump (G1311A), autosampler CTC HTS PAL, degasser (G1322A) and column thermostat (G1316A); column: Phenomenex Gemini C18, 5 μm, 50 mm×2 mm; temperature: 40° C.; eluent A: water/phosphoric acid pH 2; eluent B: acetonitrile; flow rate: 0.7 ml/min; gradient: 0-0.5 min 85% A, 15% B; ramp: 0.5-3 min 10% A, 90% B; 3-3.5 min 10% A, 90% B; ramp: 3.5-4 min 85% A, 15% B; 4-5 min 85% A, 15% B.
Agilent 1100 with DAD (G1315A), quat. pump (G1311A), autosampler CTC HTS PAL, degasser (G1322A) and column thermostat (G1316A); column: VDSoptilab Kromasil 100 C18, 3.5 μm, 60 mm×2.1 mm; temperature: 30° C.; eluent A: water+5 ml perchloric acid/I; eluent B: acetonitrile; flow rate: 0.75 ml/min; gradient: 0-0.5 min 98% A, 2% B; ramp: 0.5-4.5 min 10% A, 90% B; 4.5-6 min 10% A, 90% B; ramp: 6.5-6.7 min 98% A, 2% B; 6.7-7.5 min 98% A, 2% B.

mice (strain: CD1) = test: Locomotor action in the treadmill experiment; format: in vivo; conditions: oral
Excerpt: B-7. Test of Adenosine A1 Receptor Agonists on Locomotor Action in the Treadmill Experiment To determine the action of adenosine A1 receptor agonists on locomotor function, the running behavior of mice (strain: CD1) in treadmills (M. Weber et al., Psychopharmacology 2008, in print) is examined. To get the mice accustomed to voluntary use of the treadmill, 2-3 weeks prior to the start of the experiment the animals are isolated in cages with a treadmill and trained. 2 weeks prior to the start of the experiment, the movements of the mice in the treadmill are recorded by a photo cell using a computer, and various running parameters such as, for example, the distance run in a day, the individual distances covered, and also their distribution over the day are determined. According to their natural running behavior, the animals are randomized into groups (8-12 animals) (control group and 1—a plurality of substance groups). After the initial 2-week phase, the animals are treated orally with the substances to be tested. Here, single doses or else increasing dosages (for example 0.3-1-3-10-30 mg/kg) are administered. The substances are tested in two independent experiments. Between 2 experiments, there are at least 3 days where the animals are not administered any substances. The running behavior of the animals is observed and recorded for 24 hours after administration. Evaluation of the running intervals and the total distance covered takes place over a period of several hours during the main activity period of the mice. Effects are stated in percent of the control.

[2] = system: spontaneously hypertensive rats; test: Measurement of blood pressure and heart rate on awake rats (telemetry); format: in vivo; conditions: maximum reduction in heart rate, oral administration of 3 mg/kg, awake SH rats
Description: B-5. Measurement of Blood Pressure and Heart Rate
Awake spontaneously hypertensive rats (SH-Ratten) carrying an internal transmitter capable of measuring permanently both blood pressure and heart rate (telemetric monitoring of hemodynamic parameters) and sitting in a cage fitted with motion sensors are orally administered test substances in various dosages. Blood pressure and heart rate and changes thereof, and also the movements and the activity of the animals are then recorded and evaluated for 24 hours.

SMILES	EC50 (adenosine A1 receptor)	EC50 (adenosine A2a receptor)	EC50 (adenosine A2b receptor)	Solubility of the active substance [1]	Reduction of the total distance run by 1 mg/kg (mice (strain: CD1))	Heart rate reduction [2]
CCN(C)c1nc(SCc2csc(-c3ccc(Cl)cc3)n2)c(C#N)c(-c2ccc(OCCO)cc2)c1C#N [Example 5, 2-({(2-(4-Chlorophenyl)-1,3-thiazol-4-yl)methyl}sulfanyl)-6-(ethyl(methyl)amino)-4-(4-(2-hydroxyethoxy)phenyl)pyridine-3,5-dicarbonitrile]	0.5 nM	315 nM	150 nM			
N#Cc1c(SCc2csc(-c3ccc(Cl)cc3)n2)nc(N2CCCC2)c(C#N)c1-c1ccc(OCCO)cc1 [Example 1]	0.1 nM	673 nM	80 nM	below the detection limit	0%	−20%
CNc1nc(SCc2csc(-c3ccc(Cl)cc3)n2)c(C#N)c(-c2ccc(OCCO)cc2)c1C#N [Example 2, 2-({(2-(4-Chlorophenyl)-1,3-thiazol-4-yl)methyl}sulfanyl)-4-(4-(2-hydroxyethoxy)phenyl)-6-(methylamino)pyridine-3,5-dicarbonitrile]				below the detection limit		−45%
COCCN(C)c1nc(SCc2csc(-c3ccc(Cl)cc3)n2)c(C#N)c(-c2ccc(OCCO)cc2)c1C#N [Example 21, 2-({(2-(4-chlorophenyl)-1,3-thiazol-4-yl)methyl}sulfanyl)-4-(4-(2-hydroxyethoxy)phenyl)-6-((2-methoxyethyl)(methyl)amino)pyridine-3,5-dicarbonitrile]	0.9 nM	743 nM			7.5%	
N#Cc1c(SCc2csc(-c3ccc(Cl)cc3)n2)nc(N2CCCCC2)c(C#N)c1-c1ccc(OCCO)cc1 [Example 13]					0%	
N#Cc1c(NC2CC2)nc(SCc2csc(-c3ccc(Cl)cc3)n2)c(C#N)c1-c1ccc(OCCO)cc1 [Example 9]	0.7 nM	281 nM	231 nM			
N#Cc1c(SCc2csc(-c3ccc(Cl)cc3)n2)nc(N2CCOCC2)c(C#N)c1-c1ccc(OCCO)cc1 [Example 17, 2-({(2-(4-chlorophenyl)-1,3-thiazol-4-yl)methyl}sulfanyl)-4-(4-(2-hydroxyethoxy)phenyl)-6-(morpholin-4-yl)pyridine-3,5-dicarbonitrile]	0.3 nM		55 nM			
COC1CCN(c2nc(SCc3csc(-c4ccc(Cl)cc4)n3)c(C#N)c(-c3ccc(OCCO)cc3)c2C#N)CC1 [Example 24, 2-({(2-(4-chlorophenyl)-1,3-thiazol-4-yl)methyl}sulfanyl)-4-(4-(2-hydroxyethoxy)phenyl)-6-(4-methoxypiperidin-1-yl)pyridine-3,5-dicarbonitrile]	0.6 nM	287 nM	675 nM			
N#Cc1c(NCCF)nc(SCc2csc(-c3ccc(Cl)cc3)n2)c(C#N)c1-c1ccc(OCCO)cc1 [Example 33, 2-({(2-(4-Chlorophenyl)-1,3-thiazol-4-yl)methyl}sulfanyl)-6-((2-fluoroethyl)amino)-4-(4-(2-hydroxyethoxy)phenyl)pyridine-3,5-dicarbonitrile]	0.05 nM	27 nM	900 nM		24%	
CCNc1nc(SCc2csc(-c3ccc(Cl)cc3)n2)c(C#N)c(-c2ccc(OCCO)cc2)c1C#N [Example 3, 2-({(2-(4-Chlorophenyl)-1,3-thiazol-4-yl)methyl}sulfanyl)-6-(ethylamino)-4-(4-(2-hydroxy-ethoxy)phenyl)pyridine-3,5-dicarbonitrile]	0.3 nM	282 nM	138 nM			
